Laboratory results as given in PubChem BioAssay (NCI).
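Briefly, cells in 96-well plates were exposed to five compound concentrations for 48 h, and endpoints were estimated by linear interpolation. The concentration for 50% growth inhibition is given as GI50. TGI: concentration producing complete growth inhibition.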

Key:
Experiment in all cases: NCI-60 cell line screen, 48 h
UO-31 renal = tested on: UO-31 renal
SNB-19 CNS = tested on: SNB-19 CNS
TK-10 renal = tested on: TK-10 renal
SR leukemia = tested on: SR leukemia
NCI-H23 lung = tested on: NCI-H23 lung
EKVX NSCLC = tested on: EKVX NSCLC
MDA-MB-435 = tested on: MDA-MB-435
SK-MEL-5 melanoma = tested on: SK-MEL-5 melanoma
KM12 colon = tested on: KM12 colon
SF-295 CNS = tested on: SF-295 CNS
IGROV1 ovarian = tested on: IGROV1 ovarian
SK-OV-3 ovarian = tested on: SK-OV-3 ovarian
OVCAR-3 ovarian = tested on: OVCAR-3 ovarian
OVCAR-5 ovarian = tested on: OVCAR-5 ovarian
UACC-257 melanoma = tested on: UACC-257 melanoma
A549 NSCLC = tested on: A549 NSCLC
SNB-75 CNS = tested on: SNB-75 CNS
HL-60(TB) leukemia = tested on: HL-60(TB) leukemia
UACC-62 melanoma = tested on: UACC-62 melanoma
SN12C renal = tested on: SN12C renal
HOP-92 NSCLC = tested on: HOP-92 NSCLC
MDA-MB-468 breast = tested on: MDA-MB-468 breast
M14 melanoma = tested on: M14 melanoma
HCT-116 colon = tested on: HCT-116 colon
OVCAR-4 ovarian = tested on: OVCAR-4 ovarian
PC-3 prostate = tested on: PC-3 prostate
COLO 205 colon = tested on: COLO 205 colon
HS 578T breast = tested on: HS 578T breast
SF-268 CNS = tested on: SF-268 CNS
U251 CNS = tested on: U251 CNS
RXF 393 renal = tested on: RXF 393 renal
HOP-62 NSCLC = tested on: HOP-62 NSCLC
NCI-H460 lung = tested on: NCI-H460 lung
SK-MEL-28 melanoma = tested on: SK-MEL-28 melanoma
SF-539 CNS = tested on: SF-539 CNS
NCI-H522 lung = tested on: NCI-H522 lung
HT29 colon = tested on: HT29 colon
A498 renal = tested on: A498 renal
BT-549 breast = tested on: BT-549 breast
786-0 renal = tested on: 786-0 renal
NCI/ADR-RES ovarian = tested on: NCI/ADR-RES ovarian
T-47D breast = tested on: T-47D breast
LOX IMVI melanoma = tested on: LOX IMVI melanoma
MCF7 breast = tested on: MCF7 breast
HCT-15 colon = tested on: HCT-15 colon
CAKI-1 renal = tested on: CAKI-1 renal
CCRF-CEM leukemia = tested on: CCRF-CEM leukemia
NCI-H226 lung = tested on: NCI-H226 lung
DU-145 prostate = tested on: DU-145 prostate
SK-MEL-2 melanoma = tested on: SK-MEL-2 melanoma
OVCAR-8 ovarian = tested on: OVCAR-8 ovarian
MDA-MB-231 breast = tested on: MDA-MB-231 breast
ACHN renal = tested on: ACHN renal
MOLT-4 leukemia = tested on: MOLT-4 leukemia
HCC-2998 colon = tested on: HCC-2998 colon
SW-620 colon = tested on: SW-620 colon
MALME-3M melanoma = tested on: MALME-3M melanoma

Compound `COc1cc2c3c(n(CCCNC(C)C)c(=O)c2cc1OC)-c1nc2c(cc1C3=O)OCO2` has a GI50 (UO-31 renal) of 5.86 µM, a TGI (UO-31 renal) of 20.4 µM and a GI50 (SNB-19 CNS) of 2 µM. The TGI (SNB-19 CNS) was 18.7 µM, the GI50 (TK-10 renal) was 19.6 µM and the TGI (TK-10 renal) was 35.4 µM. It also gave a GI50 (SR leukemia) of 0.359 µM, a TGI (SR leukemia) of 2.77 µM and a GI50 (NCI-H23 lung) of 0.587 µM. For the same compound, the TGI (NCI-H23 lung) was 12.4 µM, the GI50 (EKVX NSCLC) was 10.7 µM and the TGI (EKVX NSCLC) was 23.6 µM. It also gave a GI50 (MDA-MB-435) of 2.16 µM, a TGI (MDA-MB-435) of 10.9 µM and a GI50 (SK-MEL-5 melanoma) of 1.39 µM. It also gave a TGI (SK-MEL-5 melanoma) of 5.35 µM, a GI50 (KM12 colon) of 12.8 µM and a TGI (KM12 colon) of 28.6 µM. The GI50 (SF-295 CNS) was 0.348 µM, the TGI (SF-295 CNS) was 15 µM and the GI50 (IGROV1 ovarian) was 14.8 µM. It also gave a TGI (IGROV1 ovarian) of 30.7 µM, a GI50 (SK-OV-3 ovarian) of 2.04 µM and a TGI (SK-OV-3 ovarian) of 19.2 µM. The GI50 (OVCAR-3 ovarian) was 14.3 µM, the TGI (OVCAR-3 ovarian) was 28.3 µM and the GI50 (OVCAR-5 ovarian) was 13 µM. The TGI (OVCAR-5 ovarian) was 26.3 µM, the GI50 (UACC-257 melanoma) was 13.8 µM and the TGI (UACC-257 melanoma) was 29 µM. It also gave a GI50 (A549 NSCLC) of 2.52 µM, a TGI (A549 NSCLC) of 24.2 µM and a GI50 (SNB-75 CNS) of 0.825 µM. The TGI (SNB-75 CNS) was 12.4 µM, the GI50 (HL-60(TB) leukemia) was 3.77 µM and the TGI (HL-60(TB) leukemia) was 21.2 µM. For the same compound, the GI50 (UACC-62 melanoma) was 9.84 µM, the TGI (UACC-62 melanoma) was 23.6 µM and the GI50 (SN12C renal) was 10.6 µM. The TGI (SN12C renal) was 23.5 µM, the GI50 (HOP-92 NSCLC) was 10.6 µM and the TGI (HOP-92 NSCLC) was 24.9 µM. It also gave a GI50 (MDA-MB-468 breast) of 0.492 µM, a TGI (MDA-MB-468 breast) of 6.08 µM and a GI50 (M14 melanoma) of 3.42 µM. For the same compound, the TGI (M14 melanoma) was 18.1 µM, the GI50 (HCT-116 colon) was 1.04 µM and the TGI (HCT-116 colon) was 2.28 µM. The GI50 (OVCAR-4 ovarian) was 17.1 µM, the TGI (OVCAR-4 ovarian) was 39.9 µM and the GI50 (PC-3 prostate) was 2.72 µM. The TGI (PC-3 prostate) was 21.9 µM, the GI50 (COLO 205 colon) was 3.98 µM and the TGI (COLO 205 colon) was 23 µM. It also gave a GI50 (HS 578T breast) of 11.8 µM, a TGI (HS 578T breast) of 33 µM and a GI50 (SF-268 CNS) of 1.17 µM. The TGI (SF-268 CNS) was 23.4 µM, the GI50 (U251 CNS) was 0.588 µM and the TGI (U251 CNS) was 19.8 µM. It also gave a GI50 (RXF 393 renal) of 2.26 µM, a TGI (RXF 393 renal) of 14.7 µM and a GI50 (HOP-62 NSCLC) of 0.474 µM. It also gave a TGI (HOP-62 NSCLC) of 18.5 µM, a GI50 (NCI-H460 lung) of 0.294 µM and a TGI (NCI-H460 lung) of 11.6 µM. It also gave a GI50 (SK-MEL-28 melanoma) of 4.94 µM, a TGI (SK-MEL-28 melanoma) of 18.2 µM and a GI50 (SF-539 CNS) of 1.52 µM. For the same compound, the TGI (SF-539 CNS) was 7.26 µM, the GI50 (NCI-H522 lung) was 0.768 µM and the TGI (NCI-H522 lung) was 27.6 µM. For the same compound, the GI50 (HT29 colon) was 1.35 µM, the TGI (HT29 colon) was 22.7 µM and the GI50 (A498 renal) was 12.2 µM. It also gave a TGI (A498 renal) of 27 µM, a GI50 (BT-549 breast) of 4.17 µM and a TGI (BT-549 breast) of 23.1 µM. For the same compound, the GI50 (786-0 renal) was 1.55 µM, the TGI (786-0 renal) was 2.98 µM and the GI50 (NCI/ADR-RES ovarian) was 1.52 µM. For the same compound, the TGI (NCI/ADR-RES ovarian) was 3.25 µM, the GI50 (T-47D breast) was 4.76 µM and the TGI (T-47D breast) was 28.6 µM. It also gave a GI50 (LOX IMVI melanoma) of 1.01 µM, a TGI (LOX IMVI melanoma) of 2.21 µM and a GI50 (MCF7 breast) of 0.101 µM. For the same compound, the TGI (MCF7 breast) was 3.07 µM, the GI50 (HCT-15 colon) was 1.21 µM and the TGI (HCT-15 colon) was 2.61 µM. It also gave a GI50 (CAKI-1 renal) of 2.43 µM, a TGI (CAKI-1 renal) of 19.2 µM and a GI50 (CCRF-CEM leukemia) of 0.0437 µM. For the same compound, the TGI (CCRF-CEM leukemia) was 1.32 µM, the GI50 (NCI-H226 lung) was 2.22 µM and the TGI (NCI-H226 lung) was 13.3 µM. For the same compound, the GI50 (DU-145 prostate) was 1.05 µM, the TGI (DU-145 prostate) was 16.6 µM and the GI50 (SK-MEL-2 melanoma) was 21.1 µM. It also gave a TGI (SK-MEL-2 melanoma) of 40.6 µM, a GI50 (OVCAR-8 ovarian) of 5.28 µM and a TGI (OVCAR-8 ovarian) of 24.9 µM. For the same compound, the GI50 (MDA-MB-231 breast) was 1.42 µM, the TGI (MDA-MB-231 breast) was 2.81 µM and the GI50 (ACHN renal) was 1.5 µM. It also gave a TGI (ACHN renal) of 13.2 µM, a GI50 (MOLT-4 leukemia) of 0.0457 µM and a TGI (MOLT-4 leukemia) of 2.13 µM. The GI50 (HCC-2998 colon) was 9.38 µM, the TGI (HCC-2998 colon) was 21.5 µM and the GI50 (SW-620 colon) was 0.724 µM. For the same compound, the TGI (SW-620 colon) was 21.3 µM, the GI50 (MALME-3M melanoma) was 1.54 µM and the TGI (MALME-3M melanoma) was 3.01 µM.
